Laboratory results from patent publication US20210045385A1, “PYRIDAZINONE-SUBSTITUTED KETOXIMES AS HERBICIDES” (FMC Corporation, priority 2018, published 2021).

Columns and labels:
Type in all cases: in vivo
[1] = system: barnyardgrass (Echinochloa crus-galli); experiment: Test A postemergence, visual plant response rating; conditions: for Barnyardgrass plant response rating (0 to 100 scale): 500 g ai/ha, postemergence, 0 is no effect, 100 is complete control; for Barnyardgrass plant response rating: Postemergence, 125 g ai/ha, 0 to 100 scale (0 no effect, 100 complete control)
How it was run: (§1)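 Ratings 0–100 (100 = complete control), visual, vs untreated controls at ~10 days. Application pre- or postemergence; solvent mixture with surfactant; loam/sand medium.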

[2] = system: foxtail, giant (giant foxtail, Setaria faberii); experiment: Test A postemergence, visual plant response rating; conditions: for Foxtail, Giant plant response rating (0 to 100 scale): 500 g ai/ha, postemergence, 0 is no effect, 100 is complete control; for Foxtail, Giant plant response rating: Postemergence, 125 g ai/ha, 0 to 100 scale (0 no effect, 100 complete control)
How it was run: as §1

[3] = system: ragweed (common ragweed, Ambrosia elatior); experiment: Test A postemergence, visual plant response rating; conditions: for Ragweed plant response rating (0 to 100 scale): 500 g ai/ha, postemergence, 0 is no effect, 100 is complete control; for Ragweed plant response rating: Postemergence, 125 g ai/ha, 0 to 100 scale (0 no effect, 100 complete control)
How it was run: as §1

[4] = system: pigweed (Amaranthus retroflexus); experiment: Test A postemergence, visual plant response rating; conditions: for Pigweed plant response rating (0 to 100 scale): 500 g ai/ha, postemergence, 0 is no effect, 100 is complete control; for Pigweed plant response rating: Postemergence, 125 g ai/ha, 0 to 100 scale (0 no effect, 100 complete control)
How it was run: as §1

[5] = system: wheat (Triticum aestivum); experiment: Test A postemergence, visual plant response rating; conditions: for Wheat plant response rating (0 to 100 scale): 500 g ai/ha, postemergence, 0 is no effect, 100 is complete control; for Wheat plant response rating: Postemergence, 125 g ai/ha, 0 to 100 scale (0 no effect, 100 complete control)
How it was run: as §1

[6] = system: Italian ryegrass (Lolium multiflorum); experiment: Test A postemergence, visual plant response rating; conditions: for Ryegrass, Italian plant response rating (0 to 100 scale): 500 g ai/ha, postemergence, 0 is no effect, 100 is complete control; for Ryegrass, Italian plant response rating: Postemergence, 125 g ai/ha, 0 to 100 scale (0 no effect, 100 complete control)
How it was run: as §1

[7] = system: galium (catchweed bedstraw, Galium aparine); experiment: Test A postemergence, visual plant response rating; conditions: for Galium plant response rating (0 to 100 scale): 500 g ai/ha, postemergence, 0 is no effect, 100 is complete control; for Galium plant response rating: Postemergence, 125 g ai/ha, 0 to 100 scale (0 no effect, 100 complete control)
How it was run: as §1

corn (Zea mays) = experiment: Test A postemergence, visual plant response rating; conditions: for Corn plant response rating (0 to 100 scale): 500 g ai/ha, postemergence, 0 is no effect, 100 is complete control; for Corn plant response rating: Postemergence, 125 g ai/ha, 0 to 100 scale (0 no effect, 100 complete control)
How it was run: as §1

[8] = system: blackgrass (Alopecurus myosuroides); experiment: Test A postemergence, visual plant response rating; conditions: for Blackgrass plant response rating (0 to 100 scale): 500 g ai/ha, postemergence, 0 is no effect, 100 is complete control; for Blackgrass plant response rating: Postemergence, 125 g ai/ha, 0 to 100 scale (0 no effect, 100 complete control)
How it was run: as §1

kochia (Kochia scoparia) [9] = experiment: Test A postemergence, visual plant response rating; conditions: for Kochia plant response rating (0 to 100 scale): 500 g ai/ha, postemergence, 0 is no effect, 100 is complete control; for Kochia plant response rating: Postemergence, 125 g ai/ha, 0 to 100 scale (0 no effect, 100 complete control)
How it was run: as §1

[10] = system: ducksalad (Heteranhera limosa); experiment: Test B flooded paddy test, visual plant response rating; conditions: 250 g ai/ha, Flood, applied to paddy water, 2-leaf stage, evaluated after 13 to 15 days
How it was run: (§2)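 Rice, umbrella sedge, ducksalad and barnyardgrass grown to 2-leaf stage; pots flooded 3 cm above soil and compound applied directly to paddy water, depth maintained.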

[11] = system: barnyardgrass (Echinochloa crus-galli); experiment: as above; conditions: 250 g ai/ha, Flood, applied to paddy water, 2-leaf stage, evaluated after 13 to 15 days
How it was run: as §2

rice (Oryza sativa) = experiment: as above; conditions: 250 g ai/ha, Flood, applied to paddy water, 2-leaf stage, evaluated after 13 to 15 days
How it was run: as §2

[12] = system: sedge, umbrella (small-flower umbrella sedge, Cyperus difformis); experiment: as above; conditions: 250 g ai/ha, Flood, applied to paddy water, 2-leaf stage, evaluated after 13 to 15 days
How it was run: as §2

[13] = system: barnyardgrass (Echinochloa crus-galli); experiment: Test A preemergence, visual plant response rating; conditions: for Barnyardgrass plant response rating: 125 g ai/ha, preemergence, 0 to 100 scale, 0 no effect, 100 complete control; for Barnyardgrass plant response rating (0 to 100 scale): 500 g ai/ha Preemergence, approx. 10 days
How it was run: as §1

[14] = system: foxtail, giant (giant foxtail, Setaria faberii); experiment: Test A preemergence, visual plant response rating; conditions: for Foxtail, Giant plant response rating: 125 g ai/ha, preemergence, 0 to 100 scale, 0 no effect, 100 complete control; for Foxtail, Giant plant response rating (0 to 100 scale): 500 g ai/ha Preemergence, approx. 10 days
How it was run: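 Preemergence: seeds in loam/sand blend given directed soil spray of compound in non-phytotoxic solvent with surfactant. Postemergence: plants 2–10 cm, one- to two-leaf stage, sprayed with same formulation. Visual injury rated vs untreated controls after ~10 days in greenhouse, 0 (no effect) to 100 (complete control).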

[15] = system: ragweed (common ragweed, Ambrosia elatior); experiment: Test A preemergence, visual plant response rating; conditions: for Ragweed plant response rating: 125 g ai/ha, preemergence, 0 to 100 scale, 0 no effect, 100 complete control; for Ragweed plant response rating (0 to 100 scale): 500 g ai/ha Preemergence, approx. 10 days
How it was run: as §1

[16] = system: pigweed (Amaranthus retroflexus); experiment: Test A preemergence, visual plant response rating; conditions: for Pigweed plant response rating: 125 g ai/ha, preemergence, 0 to 100 scale, 0 no effect, 100 complete control; for Pigweed plant response rating (0 to 100 scale): 500 g ai/ha Preemergence, approx. 10 days
How it was run: as §1

[17] = system: Italian ryegrass (Lolium multiflorum); experiment: Test A preemergence, visual plant response rating; conditions: for Ryegrass, Italian plant response rating: 125 g ai/ha, preemergence, 0 to 100 scale, 0 no effect, 100 complete control; for Ryegrass, Italian plant response rating (0 to 100 scale): 500 g ai/ha Preemergence, approx. 10 days
How it was run: as §1

kochia (Kochia scoparia) [18] = experiment: Test A preemergence, visual plant response rating; conditions: for Kochia plant response rating: 125 g ai/ha, preemergence, 0 to 100 scale, 0 no effect, 100 complete control; for Kochia plant response rating (0 to 100 scale): 500 g ai/ha Preemergence, approx. 10 days
How it was run: as §1

SMILES	Barnyardgrass plant response rating (0 to 100 scale) [1]	Barnyardgrass plant response rating [1]	Foxtail, Giant plant response rating (0 to 100 scale) [2]	Foxtail, Giant plant response rating [2]	Ragweed plant response rating (0 to 100 scale) [3]	Ragweed plant response rating [3]	Pigweed plant response rating (0 to 100 scale) [4]	Pigweed plant response rating [4]	Wheat plant response rating (0 to 100 scale) [5]	Wheat plant response rating [5]	Ryegrass, Italian plant response rating (0 to 100 scale) [6]	Ryegrass, Italian plant response rating [6]	Galium plant response rating (0 to 100 scale) [7]	Galium plant response rating [7]	Corn plant response rating (0 to 100 scale) (corn (Zea mays))	Corn plant response rating (corn (Zea mays))	Blackgrass plant response rating (0 to 100 scale) [8]	Blackgrass plant response rating [8]	Kochia plant response rating (0 to 100 scale) (kochia (Kochia scoparia) [9])	Kochia plant response rating (kochia (Kochia scoparia) [9])	also measured
C=CCO/N=C(/c1c(O)c(C)nn(C)c1=O)c1ccc(F)c2ccccc12 [Compound 87]	80	60	80	70	90	100	90	70	60	40	100	80	100	80	30	0	90	80	70	40	Plant response rating, Ducksalad (0 to 100 scale, 0 is no effect, 100 is complete control) [10]: 0; Plant response rating, Barnyardgrass (0 to 100 scale, 0 is no effect, 100 is complete control) [11]: 0; Plant response rating, Rice (0 to 100 scale, 0 is no effect, 100 is complete control) (rice (Oryza sativa)): 0; Plant response rating, Sedge, Umbrella (0 to 100 scale, 0 is no effect, 100 is complete control) [12]: 0; Barnyardgrass plant response rating [13]: 70; Barnyardgrass plant response rating (0 to 100 scale) [13]: 90; Foxtail, Giant plant response rating [14]: 90; Foxtail, Giant plant response rating (0 to 100 scale) [14]: 100; Ragweed plant response rating [15]: 90; Ragweed plant response rating (0 to 100 scale) [15]: 90; Pigweed plant response rating [16]: 30; Pigweed plant response rating (0 to 100 scale) [16]: 100; Ryegrass, Italian plant response rating [17]: 90; Ryegrass, Italian plant response rating (0 to 100 scale) [17]: 100; Kochia plant response rating (kochia (Kochia scoparia) [18]): 0; Kochia plant response rating (0 to 100 scale) (kochia (Kochia scoparia) [18]): 30
CCCc1ccccc1/C(=N\OC)c1c(O)c(C)nn(C)c1=O [Compound 92]	40	20	60	50	70	60	80	60	0	0	60	50	70	70	10	0	70	20	60	30	Plant response rating, Ducksalad (0 to 100 scale, 0 is no effect, 100 is complete control) [10]: 0; Plant response rating, Barnyardgrass (0 to 100 scale, 0 is no effect, 100 is complete control) [11]: 0; Plant response rating, Rice (0 to 100 scale, 0 is no effect, 100 is complete control) (rice (Oryza sativa)): 0; Plant response rating, Sedge, Umbrella (0 to 100 scale, 0 is no effect, 100 is complete control) [12]: 0; Barnyardgrass plant response rating [13]: 30; Barnyardgrass plant response rating (0 to 100 scale) [13]: 60; Foxtail, Giant plant response rating [14]: 70; Foxtail, Giant plant response rating (0 to 100 scale) [14]: 80; Ragweed plant response rating [15]: 20; Ragweed plant response rating (0 to 100 scale) [15]: 30; Pigweed plant response rating [16]: 30; Pigweed plant response rating (0 to 100 scale) [16]: 90; Ryegrass, Italian plant response rating [17]: 40; Ryegrass, Italian plant response rating (0 to 100 scale) [17]: 80; Kochia plant response rating (kochia (Kochia scoparia) [18]): 0; Kochia plant response rating (0 to 100 scale) (kochia (Kochia scoparia) [18]): 10
